Earlier results as cited in patent publication US20220249605A1, “Treatment of Mood and Anxiety Disorders” (Icahn School of Medicine At Mount Sinai, priority 2013, published 2022).
Each block holds one molecule with its values, some of them ahead of it. Bridge positions count the residues as written; N and C are the ends. Ends that are not written are not given here.

Experiments:
[1] = biological target: T1, NPY Y2 receptor (Homo sapiens, UniProt P49146); conditions: read-out: IC50, Y2 receptor antagonist
T1 sequence (P49146 1-381): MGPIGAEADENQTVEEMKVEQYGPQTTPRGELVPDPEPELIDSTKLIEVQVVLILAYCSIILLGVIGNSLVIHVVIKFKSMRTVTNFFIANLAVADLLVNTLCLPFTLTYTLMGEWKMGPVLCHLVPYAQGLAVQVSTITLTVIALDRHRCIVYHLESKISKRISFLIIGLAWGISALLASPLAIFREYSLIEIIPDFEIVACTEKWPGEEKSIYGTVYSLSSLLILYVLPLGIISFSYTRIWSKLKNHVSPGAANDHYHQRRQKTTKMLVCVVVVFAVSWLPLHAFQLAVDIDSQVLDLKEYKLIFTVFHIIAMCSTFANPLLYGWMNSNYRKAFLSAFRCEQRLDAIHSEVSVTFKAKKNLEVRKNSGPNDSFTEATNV

[2] = tested on: Y1 receptor
[3] = anesthetized rats
[4] = biological target: T2, Y1 receptors (Homo sapiens, UniProt P25929)
T2 sequence (P25929 1-384): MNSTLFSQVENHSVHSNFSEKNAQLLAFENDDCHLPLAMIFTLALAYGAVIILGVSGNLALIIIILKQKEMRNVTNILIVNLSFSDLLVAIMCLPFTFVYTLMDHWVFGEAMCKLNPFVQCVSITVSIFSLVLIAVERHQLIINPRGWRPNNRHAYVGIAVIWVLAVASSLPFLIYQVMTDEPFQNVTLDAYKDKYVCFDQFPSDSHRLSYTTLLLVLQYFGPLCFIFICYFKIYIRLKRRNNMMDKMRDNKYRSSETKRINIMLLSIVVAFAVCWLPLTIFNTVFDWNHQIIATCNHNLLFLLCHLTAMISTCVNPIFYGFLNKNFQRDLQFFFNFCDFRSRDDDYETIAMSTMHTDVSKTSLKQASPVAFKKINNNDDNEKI

[5] = tested on: norepinephrine-stimulated cAMP accumulation in SK-N-MC cells; conditions: read-out: EC50, inhibition of norepinephrine-stimulated cAMP accumulation
[6] = anesthetized rats and dogs

Molecule: CN(C)S(=O)(=O)c1ccc(NC(=S)N2CCC(C(O)(c3ccccc3)c3ccccc3)CC2)cc1 [CYM 9484]
IC50 [1]: 19 nM

Molecule: Tyr-Lys-Gly-(Cyclo(Glu^26-Lys^29), Pro^34)-Neuropeptide Y (25-36) (YKGREYIKLITRPRY; lactam 5-8; ends not checked) [H-3972]
Ki [4]: 16 nM
EC50 [5]: 12 nM

Molecule: (Leu^31, Pro^34)-Neuropeptide Y [H-3306]
Specificity (Y1 receptor) [2]: Specific Y1 receptor

Now from value to molecule, other results behind:

Specificity (Y1 receptor) [2]: selective ligand for
Molecule: (Leu^31, Pro^34)-Neuropeptide Y [H-8575]
Potency in increasing blood pressure compared with NPY [3]: showing an even higher

Specificity (Y1 receptor) [2]: selective NPY agonist
Molecule: (Pro^34)-Neuropeptide Y [H-8580]
Effect on blood pressure [6]: increased blood
Inhibitory effects on cardiac vagal action [6]: contrast, showed no
